The target of one assay is T1, βARR1–SRC interaction (Rattus norvegicus, UniProt P29066).
T1 construct: made in house
Kind of assay: Flag pulldown of βARR1 with SRC. It is filed as biochemical. The settings on record: 20-fold molar excess of compound, 30 min. As to the method:
(§1) To assess the effects of the compounds on βARR1 interactions with its effector proteins SRC and JNK3, βARR1–Flag (5 μM) was incubated with a 20-fold molar excess of Cmpd-5, Cmpd-46 or Cmpd-64 for 30 min at room temperature. Subsequently, 15 μM of SRC or JNK3 was added. To evaluate compound effects on βARR1–ERK2 binding, βARR1 (15 μM) was pre-incubated with a 20-fold molar excess of Cmpd-5, Cmpd-46 or Cmpd-64 for 30 min at room temperature, followed by the addition of 5 μM ERK2–Flag. Afterward, 50 μl of anti-Flag M2 affinity gel (Millipore Sigma) was added, and the mixtures were incubated for 1 h at room temperature with rotation. The resin was then collected by centrifugation and washed 3 times with 1 ml of 20 mM HEPES (pH 7.5), 100 mM NaCl. Bound proteins were eluted using 0.2 mg ml^−1 Flag peptide in 20 mM HEPES (pH 7.5), 100 mM NaCl, mixed with Laemmli sample buffer (Bio-Rad), and analysed by SDS–PAGE followed by western blotting. Detection was performed using monoclonal anti-Flag M2-peroxidase (HRP) antibody (1:2,000, Sigma-Aldrich A8592, RRID:AB_439702) for βARR1–Flag and ERK2–Flag; polyclonal A1CT antibody[76] (1:5,000) for βARR1; anti-SRC monoclonal antibody (1:10,000, EMD Millipore 05-184, RRID:AB_2302631) for SRC; and anti-JNK3 monoclonal antibody (1:5,000, Cell Signaling 2305, RRID:AB_2281744) for JNK3. Western blot images were taken using Bio-Rad ChemiDoc system and the densitometry analysis was performed by ImageLab v6.1 and statistical differences were determined by one-way ANOVA with Dunnett’s post hoc test in GraphPad Prism software.

Assay [1] has as its system β-arrestin-dependent ERK1/2 activation downstream of β2AR. Kind of assay: Carvedilol-stimulated ERK1/2 phosphorylation in β2AR HEK293 cells. As to conditions: 30 μM; carvedilol 10 μM, 5 min. It is filed as cell-based. On the procedure: To evaluate the effect of small-molecule modulators on β-arrestin-dependent ERK1/2 signalling, HEK293 cells stably expressing β2AR were serum-starved for 6 h (refs. [34],[75]), then pretreated with β-arrestin modulators (30 μM) or vehicle for 20 min at 37 °C. Cells were subsequently stimulated with carvedilol (10 μM, 5 min), a β-arrestin-biased agonist known to promote ERK1/2 phosphorylation via β-arrestin scaffolding of RAF–MEK–ERK signalling components. Cells were lysed, sonicated (15 s), and centrifuged at 14,000g for 15 min at 4 °C. Equal amounts of total protein were resolved by SDS–PAGE on 4–20% Tris-Glycine gels (Thermo Fisher Scientific), transferred to nitrocellulose or PVDF membranes, and immunoblotted with anti–phospho-ERK1/2 (1:2,000; Cell Signaling) and total ERK1/2 (1:10,000; Millipore Sigma). HRP-conjugated secondary antibodies were used for detection. Protein bands were visualized using Pierce SuperSignal West Pico ECL substrate (Thermo Fisher Scientific), imaged on a ChemiDoc XRS system (Bio-Rad) and quantified by densitometry using ImageLab (Bio-Rad). Data were analysed using GraphPad Prism.

The subject of assay [2] is β2AR desensitization (cAMP). Kind of assay: FRET (ICUE2) cAMP accumulation, β2AR desensitization. It is filed as cell-based. As to conditions: 40 μM, 5 min; Iso 10 μM; HEK293 cells stably expressing β2AR. As to the method:
To measure cellular cAMP production in live cells mediated by stimulatory G protein, Gαs-coupled β2AR activation, FRET-based Epac sensors were used as described previously. The Epac2 (ICUE2) sensor contains a CFP and YFP FRET pair. HEK293 cells stably expressing ICUE2 were plated in poly-D-lysine-coated, black, clear-bottom 96-well plates (Corning) at a density of 50,000 cells per well. At least 16 h after plating, cells were washed with PBS and incubated in HEPES-buffered saline solution (10 mM HEPES, 150 mM NaCl, 5 mM KCl, 1.5 mM MgCl2, 1.5 mM CaCl2, 10 mM glucose, 0.2% BSA, pH 7.4) for 1 h at 37 °C. Cells were then treated with either β-arrestin small-molecule modulators (40 μM) or DMSO for 5 min, and baseline fluorescence was monitored. Real-time cAMP measurement was initiated by stimulating cells with 10 μM Iso at 37 °C. FRET changes corresponding to cAMP accumulation were measured as changes in the background-subtracted 480 nm/535 nm fluorescence emission ratio (CFP/YFP), reflecting changes in cAMP levels. The entire cAMP accumulation profile was quantified by calculating the AUC for the time course. To assess the effect of modulators on the agonist-induced cAMP response, AUC values were expressed as a percentage of the response to Iso in the presence of DMSO (set as 100%), enabling comparison of the effect of each modulator relative to this agonist-alone control.

The target in a further assay is T2, βARR1–ERK2 interaction (Rattus norvegicus, UniProt P29066).
T2 construct: βARR1 or βARR2 construct, with their C terminus truncated (at amino acid 393 or 394, respectively); GST (pGEX4T1) (N, cleaved yes); made in house
In words: Flag pulldown of βARR1 with ERK2. The class given is biochemical. As to conditions: 20-fold molar excess of compound, 30 min. As to the method:
as §1

Assay [3] deals with AT1R desensitization (Ca2+). Kind of assay: Ca2+ mobilization in HEK293 cells stably expressing AT1R. It is filed as cell-based, human. The settings on record: 10 μM, 30 min, ANGII 30 pM. On the procedure: Intracellular (Ca^2+) release was measured using the FLIPR Calcium 6 assay kit with a FlexStation 3 microplate reader, following the manufacturer’s instructions (Molecular Devices) and as described previously. In brief, HEK293 cells stably expressing human angiotensin II type 1 receptor (AT1R), parental HEK293 cells transiently expressing AT1R, or HEK293 CRISPR–Cas9 βARR1/2-knockout cells transiently expressing AT1R were seeded in poly-D-lysine-coated, black 96-well assay plates at a density of 40,000 cells per well and incubated for 24 h. On the day of the experiment, cell plates were loaded with FLIPR Calcium 6 reagents and treated with β-arrestin small-molecule modulators (10 μM) or vehicle (DMSO) for 30 min. After establishing basal fluorescence (F0), the cells were treated with the agonist ANGII (30 pM for stably expressing AT1R or 120 pM for transiently expressing AT1R) while fluorescence intensity (F) was monitored in real time. These sub-maximal ANGII concentrations were empirically optimized to elicit moderate, temporally resolved Ca^2+ transients, allowing sufficient time for β-arrestin-mediated desensitization to develop prior to the peak response. The complete Ca^2+ transient profile was quantified by calculating the AUC over time. AUC values were normalized to the response to ANGII alone (set as 100%) to compare the effects of modulators relative to the agonist-alone control.

Another assay concerns the target T3, βARR1–JNK3 interaction (Rattus norvegicus, UniProt P29066).
T3 construct: made in house
In words: Flag pulldown of βARR1 with JNK3. The settings on record: 20-fold molar excess of compound, 30 min. The class given is biochemical. As to the method: as §1

Here are results for 3 compounds from PMC13489962, “Small-molecule modulation of β-arrestins” (Nature, 2026).

“Also recorded” adds a separate entry of the source.

T3 sequence (P29066 whole entry): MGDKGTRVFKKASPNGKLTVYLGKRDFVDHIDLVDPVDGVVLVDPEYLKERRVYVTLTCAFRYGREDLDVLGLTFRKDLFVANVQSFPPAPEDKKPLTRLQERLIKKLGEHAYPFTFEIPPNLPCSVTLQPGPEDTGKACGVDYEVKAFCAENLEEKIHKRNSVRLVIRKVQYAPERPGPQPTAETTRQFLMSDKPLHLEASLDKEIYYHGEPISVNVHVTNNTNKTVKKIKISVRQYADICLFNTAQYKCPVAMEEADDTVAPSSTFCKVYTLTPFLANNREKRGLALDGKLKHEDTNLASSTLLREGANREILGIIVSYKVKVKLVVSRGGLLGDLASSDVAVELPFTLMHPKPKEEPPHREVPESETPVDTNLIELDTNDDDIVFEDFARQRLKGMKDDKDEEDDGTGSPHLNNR
T3 sequence (P53779 whole entry partner): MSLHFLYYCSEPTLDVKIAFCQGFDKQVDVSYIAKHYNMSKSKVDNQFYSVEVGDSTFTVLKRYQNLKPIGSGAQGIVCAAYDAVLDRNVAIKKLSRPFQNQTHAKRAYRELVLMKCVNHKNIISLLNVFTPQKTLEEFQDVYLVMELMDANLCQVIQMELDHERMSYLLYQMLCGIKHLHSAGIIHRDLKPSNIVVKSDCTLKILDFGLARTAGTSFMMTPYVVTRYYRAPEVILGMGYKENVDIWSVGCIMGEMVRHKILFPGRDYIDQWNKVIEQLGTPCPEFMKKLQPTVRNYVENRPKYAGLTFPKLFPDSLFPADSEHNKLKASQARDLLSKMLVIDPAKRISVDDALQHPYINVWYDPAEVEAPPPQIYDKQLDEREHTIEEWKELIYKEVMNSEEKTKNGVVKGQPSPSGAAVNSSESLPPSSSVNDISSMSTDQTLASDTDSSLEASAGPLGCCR
T1 sequence (P29066 whole entry): as the sequence (P29066 whole entry) above
T2 sequence (P29066 1-393): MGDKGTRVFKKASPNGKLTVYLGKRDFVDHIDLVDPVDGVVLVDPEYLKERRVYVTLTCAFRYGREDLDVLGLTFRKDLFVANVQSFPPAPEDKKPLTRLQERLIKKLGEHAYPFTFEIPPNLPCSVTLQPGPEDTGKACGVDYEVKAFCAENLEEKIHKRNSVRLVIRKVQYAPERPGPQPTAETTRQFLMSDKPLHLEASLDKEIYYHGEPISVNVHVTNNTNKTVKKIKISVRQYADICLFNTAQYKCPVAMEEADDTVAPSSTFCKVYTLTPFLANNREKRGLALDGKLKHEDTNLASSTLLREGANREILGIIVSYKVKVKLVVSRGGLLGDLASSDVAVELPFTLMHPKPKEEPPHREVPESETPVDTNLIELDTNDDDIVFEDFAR

Regarding `C=C1C(=O)[C@]23[C@H](O)[C@H]1CC[C@H]2[C@@]12CO[C@]3(O)[C@@H](O)[C@@H]1C(C)(C)CC[C@@H]2O` [Cmpd-5, (1S,4aR,5S,6S,6aR,9S,11aS,11bS,14R)-1,5,6,14-tetrahydroxy−4,4-dimethyl-8-methylenedecahydro-1H-6,11b-(epoxymethano)-6a,9-methanocyclohepta[a]naphthalen-7(8H)-one], the “effect on βARR1 binding to SRC” value at βARR1–SRC interaction is reported as “reduced”. Besides, the “effect on β-arrestin-dependent ERK1/2 activation” value in assay [1] is given as “significantly attenuated; also recorded: attenuate”. The “Iso-induced cAMP accumulation (AUC) relative to DMSO (set to 100%)” value in assay [2] turned out to be 191%. Besides, the “effect on βARR1 binding to ERK2” value on βARR1–ERK2 interaction is reported as “reduced; also recorded: significantly inhibited”. Further, in assay [3], the “ANGII-induced Ca2+ response (AUC) relative to DMSO (set to 100%)” value turned out to be 279%. Moreover, on βARR1–JNK3 interaction, the “effect on βARR1 binding to JNK3” value is on record as “minimal change”.
For the compound `C=C1C(=O)C2=CC1CCC(=O)C1(C)CCC(OCC)C(C)(C)C1CC2O` (stereo not drawn) [Cmpd-46, (Z)-3-ethoxy-6-hydroxy-4,4,13a-trimethyl-9-methylene-1,2,3,4,4a,5,6,9,10,11,12,13a-dodecahydro-7,10-(metheno)benzo[11]annulene-8,13-dione], on βARR1–SRC interaction, the “effect on βARR1 binding to SRC” value is recorded as “markedly reduced”. Besides, the “effect on β-arrestin-dependent ERK1/2 activation” value in assay [1] was “significantly attenuated; also recorded: attenuate”. For the same compound, the “Iso-induced cAMP accumulation (AUC) relative to DMSO (set to 100%)” value in assay [2] is given as 207%. In addition, the “effect on βARR1 binding to ERK2” value at βARR1–ERK2 interaction is given as “reduced”. For the same compound, in assay [3], the “ANGII-induced Ca2+ response (AUC) relative to DMSO (set to 100%)” value came to 356%. Besides, the “effect on βARR1 binding to JNK3” value at βARR1–JNK3 interaction was “minimal change”.
`C=C1C(=O)OC2CC3(C)OC3CCC(C)=CC(OC(C)=O)C12` (stereo not drawn) [Cmpd-64, (Z)-4,10a-dimethyl-7-methylene-8-oxo-1a,2,3,6,6a,7,8,9a,10,10a decahydrooxireno[2’,3’:8,9]cyclodeca[1,2-b]furan-6-yl acetate]: at βARR1–SRC interaction, the “effect on βARR1 binding to SRC” value was “markedly reduced”. In assay [1], the “effect on β-arrestin-dependent ERK1/2 activation” value was “significantly attenuated; also recorded: attenuate”. The “Iso-induced cAMP accumulation (AUC) relative to DMSO (set to 100%)” value in assay [2] is given as 282%. In addition, on βARR1–ERK2 interaction, the “effect on βARR1 binding to ERK2” value is listed as “reduced”. Also, the “ANGII-induced Ca2+ response (AUC) relative to DMSO (set to 100%)” value in assay [3] is reported as 490%. Besides, at βARR1–JNK3 interaction, the “effect on βARR1 binding to JNK3” value is “minimal change”.
